Experimental data published in patent US20130123494A1, “COMPLEX COMPOUND AND OPTICAL RECORDING MEDIUM CONTAINING SAME” (KH NEOCHEM CO., LTD., priority 2010, published 2013).

What was measured:
Format in all cases: physicochemical
[1] = Moisture- and heat-resistances test of thin films; settings: thin film, 80° C., relative humidity 80%, 100 hours
Protocol: Similarly to the film-forming test, thin films of Complex Compounds (2) to (5), (7), (9) to (11), (13) to (21), (24), (26), (28), (30), (31), and (33) were respectively obtained. Using a constant temperature and humidity chamber, KHWII-40HP, manufactured by Satake Chemical Equipment Mfg Ltd., the thin films were exposed in the atmosphere having a temperature of 80° C. and a relative humidity of 80% for 100 hours. Ultraviolet-visible absorption spectra of the thin films before and after the moisture- and heat-resistances test were measured using a spectrophotometer. […] Here, the absorption maximum wavelength after the moisture- and heat-resistances test denotes the absorption maximum wavelength in an absorption spectrum after the moisture- and heat-resistances test.

[2] = Lightfastness test of thin films; settings: thin film on glass plate, UV fluorescent lamps 15 W/m^2, 45° C., 10 hours
Text: Thin films of Complex Compounds (2) to (5), (7), (9) to (11), (13) to (21), (24), (26), (28), (30), (31), and (33) were respectively obtained similarly to the film-forming test except that a glass plate (manufactured by Taiyu Kizai Co., Ltd.; 2 cm×2 cm; thickness: 2 mm) was used as the substrates instead of the plate made of polycarbonate resin. Using a dewpanel light control weather meter DPWL-5R, manufactured by Suga Test Instruments Co., Ltd., which was equipped with ultraviolet fluorescent lamps (SUGA-FS40, manufactured by Suga Test Instruments Co., Ltd., having a peak wavelength of 313 nm and an illuminance distribution of 282 nm to 373 nm), light was irradiated on the thin films with an amount of light of 15 W/m^2 at 45° C. for 10 hours. Ultraviolet-visible absorption spectra of the thin film before and after the lightfastness test were measured using a spectrophotometer.
Here, the absorption maximum wavelength after lightfastness test denotes an absorption maximum wavelength in the absorption spectrum after the lightfastness test.

[3] = Water resistance test of thin films; settings: for I^d/I^d0 (absorbance ratio at absorption maximum after/before water resistance test) / Δλmax (d) (change in absorption maximum wavelength): thin film immersed in water at 75° C. for 30 minutes; for Water resistance of thin film (in words): thin film in water at 75° C. for 30 minutes
Protocol: Similarly to the film-forming test, thin films of Complex Compounds (2), (3), (13), (19), and (20) were respectively obtained. Ultraviolet-visible absorption spectra of the thin films were measured using a spectrophotometer before and after the water resistance test in which the thin films were immersed in water at 75° C. for 30 minutes. […] Here, the absorption maximum wavelength after the water resistance test denotes the absorption maximum wavelength in the absorption spectrum after the water resistance test. […] Here, the water resistance test is a test under severe conditions, and a thin film having the ratio (I^d/I^d0) of 0.5 or greater has favorable water resistance.

[4] = Test of storage stability in solution; settings: 13 mg in 1 mL TFP, brown bottle, 25° C., 3 days; 1250-fold diluted for measurement
Protocol: Each of 13 mg of Complex Compounds (2) to (5), (7), (9) to (11), (13) to (21), (24), (26), (28), (30), (31), and (33) was dissolved in 1 mL of TFP, which was filtered with a filter made of TEFLON (registered trademark) (manufactured by Whatman, having a pore diameter of 0.20 μm), and solutions of Complex Compounds (2) to (5), (7), (9) to (11), (13) to (21), (24), (26), (28), (30), (31), and (33) were respectively obtained. Each of the obtained solutions was transferred to a brown bottle with a lid and stored at 25° C. for 3 days. Before and after the storage stability test, using a spectrophotometer, 1250-fold diluted solutions of Complex Compounds (2) to (5), (7), (9) to (11), (13) to (21), (24), (26), (28), (30), (31), and (33), respectively, were measured for their ultraviolet-visible absorption spectra. […] Here, the absorption maximum wavelength after the storage stability test is the absorption maximum wavelength in the absorption spectrum after the storage stability test.

| SMILES | I^b/I^b0 (absorbance ratio at absorption maximum after/before moisture- and heat-resistances test) [1] | Δλmax(b) (change in absorption maximum wavelength) [1] [nm] | I^a/I^a0 (absorbance ratio at absorption maximum after/before lightfastness test) [2] | I^d/I^d0 (absorbance ratio at absorption maximum after/before water resistance test) [3] | Δλmax (d) (change in absorption maximum wavelength) [3] [nm] | Water resistance of thin film (in words) [3] | I^c/I^c0 (absorbance ratio at absorption maximum after/before storage stability test) [4] | Δλmax(c) (change in absorption maximum wavelength) [4] [nm] |
| --- | --- | --- | --- | --- | --- | --- | --- | --- |
| Cc1c(/C=N/[N-]c2nnnn2-c2ccccc2)c([O-])n(CC(C)C)c(=O)c1C#N.Cc1c(/C=N/[N-]c2nnnn2-c2ccccc2)c([O-])n(CC(C)C)c(=O)c1C#N.Cc1c(/C=N/[N-]c2nnnn2-c2ccccc2)c([O-])n(CC(C)C)c(=O)c1C#N.Cc1c(/C=N/[N-]c2nnnn2-c2ccccc2)c([O-])n(CC(C)C)c(=O)c1C#N.[Co+3].[Co+3].c1ccc(-[n+]2ccc(-c3cc[n+](-c4ccccc4)cc3)cc2)cc1 [Complex Compound (13)] | 0.99 | 0 | 0.87 | 0.59 | 0.5 | superior water resistance | 0.99 | 0 |
| CCCCn1c([O-])c(/C=N/[N-]c2nnnn2-c2ccccc2)c(C)c(C#N)c1=O.CCCCn1c([O-])c(/C=N/[N-]c2nnnn2-c2ccccc2)c(C)c(C#N)c1=O.CCCCn1c([O-])c(/C=N/[N-]c2nnnn2-c2ccccc2)c(C)c(C#N)c1=O.CCCCn1c([O-])c(/C=N/[N-]c2nnnn2-c2ccccc2)c(C)c(C#N)c1=O.Fc1cccc(-[n+]2ccc(-c3cc[n+](-c4cccc(F)c4)cc3)cc2)c1.[Co+3].[Co+3] [Complex Compound (2)] | 0.97 | 0.5 | 0.92 | 0.73 | 0.5 | superior water resistance | 1.00 | 0 |
